The test system of assay [1] is 1 or 2 -adrenergic. Put plainly: In vivo study on amyelous rats (arterial pressure increase, with or without prazosin or yohimbine). The arrangement: species or system Male Sprague-Dawley rats. As to conditions: for ED (20 mmHg): Rattus norvegicus, iv, Control (no antagonist), increasing cumulative doses every 20 seconds, tertatolol pretreatment, read-out: C20 (concentration which increases the pressure by 20 mmHg); for Ratio C20 treated/C20 control: pretreated with yohimbine (1 mg/kg). The source says: In vivo study on AMYELOUS RATS
Male Sprague-Dawley rats (300-400 g) are anesthatized with ether. A cannula is inserted in the trachea, the spinal cord is destroyed using a steel rod and the animal is immediately placed under artificial respiration. The vagus nerves are sectioned. The carotid arteries are ligatured and a catheter is placed in one and is used to record the arterial pressure. Three other catheters are placed in the jugular veins and the vein of the penis and are used for injections. The temperature of the animals is maintained at 36° C. The animal is pretreated with an injection of tertatolol ([…]). The animal is also pretreated 10 minutes afterwards with prazosin ([…]) or yohimbine (1 mg/kg) when it is wished to determine the 1 or 2 -adrenergic properties of the product. Ten minutes later, increasing cumulative doses of product are injected every 20 seconds. The medal pressure variations are detected using a P23XL Statham pressure cell and are recorded. The pressure values are expressed in mmHg. This experiment makes it possible to calculate the concentration which increases the pressure by 20 mmHg (C2.sbsb.0) by non-linear regression according to the model of the Michaelis and Menten mass action law as described above. The maximum effect obtained is then converted to a percentage with respect to the maximum effect caused by phenylephrine. The 1 or 2 -adrenergic components of the product are estimated using the ratio of the C2.sbsb.0 values obtained in the presence of prazosin or of yohimbine to the values obtained in the absence of these antagonists. In amyelous rats, the products of the invention induce hypertensions which are inhibited more by prazosin than by yohimbine.

Assay [2] concerns femoral arteries. Put plainly: In vitro contraction of dog femoral arteries (agonist concentration/effect curve). As to conditions: Canis lupus familiaris, ARTERY; for EC50: femoral artery rings, dog, 37° C.; for Emax: maximum effect relative to maximum effect caused by 100 mM KCl, read-out: Max (% KCl). The method, then:
(§1) In vitro study on the femoral arteries and saphenous veins of dogs
(§2) The technique used is based on that described by Fowler et at. (J. Pharmacol. Exp. Ther., 229, 712-718, 1984). Male or female mongrel dogs weighing approximately 15-25 kg were used as organ sources. The animals are anesthetized with pentrobarbital (30 mg/kg, intravenously). Incisions are made in the legs and the vessels are withdrawn. They are placed in Krebs-Ringer liquid (NaCl 118 mM, NaHCO3 25 mM, Glucose 10 mM, KCl 4.7 mM, CaCl2 1.25 mM, MgSO4 1.19 mM, KH2 PO4 1.14 mM) at room temperature and while bubbling with carbogen (95% O2, 5% CO2). These vessels are then carefully freed from their fat, then cut into rings with a width of 2 mm and mounted under a base tension of 4 g (femoral arteries) or 1 g (saphenous veins) in vessels thermostatically controlled at 37° C. containing Krebs-Ringer liquid through which carbogen is constantly bubbling. A lower hook constitutes the set point whereas the upper hook is connected to an isometric force sensor. The tension variations are digitized, stored on disk and processed by a computer system. After mounting, the organs, are left at rest for 90 minutes, rinsings being carried out every 30 min. After readjusting the base tension, a contraction is caused by a single dose of KCl (100 mM). After stabilisation, washing and returning to the base line, a contraction is provoked by a single dose of phenylephrine (submaximal concentration) in order to regularize the following contractions. After washing and returning to the base line, a concentration/effect curve is produced by addition of cumulative doses of agonist (the spacing between the doses is a half-log). This experiment makes it possible to calculate the 50% effective concentration (EC5.sbsb.0) in the following way: the tension values are first converted to percentages with respect to the maximum effect caused by 100 mM of KCl. This EC5.sbsb.0 is determined by non-linear regression by the Simplex method (M. S. Caceci, Byte, 340-362, 1984), calculated according to the model of the law of mass action of L. Michaelis and M. L. Menten (Biochem. Zeitschrifft, 49, 333-369, 1913). E=(Emax*C^n)(EC^n +C^n) where E=effect, Emax=maximum effect, C=concentration, EC=EC5.sbsb.0 and n=Hill number.

Assay [3] deals with saphenous veins. Put plainly: In vitro contraction of dog saphenous veins (agonist concentration/effect curve). As to conditions: Canis lupus familiaris, VEIN; for Emax: maximum effect relative to maximum effect caused by 100 mM KCl, read-out: Max (% KCl); for EC50: saphenous vein rings, dog, 37° C. As for the experimental part:
as §1, §2

Counter-ions that a name gives are not always drawn.

The results in this text go back to patent US5464859A, “Benzospiroalkene derivatives” (Adir et Compagnie, priority 1993, dated 1995).

For the molecule `CCOc1ccc(OCC)c2c1CCC1(CNC=N1)C2` (stereo not drawn) [Example 3, Spiro[(1,3-diazacyclopent-1-ene)-5,2'-(5',8'-diethoxy-1',2',3',4'-tetrahydronaphthalene) fumarate], in assay [1], the ED (20 mmHg) came to 0.6 µg/kg and the “Ratio C20 treated/C20 control” value amounted to 8.
Take `COc1cccc2c1CCC1(CNC=N1)C2` (stereo not drawn) [Example 5, Spiro[(1,3-diazacyclopent-1-ene)-5,2'-(5'-methoxy-1',2',3',4'-tetrahydronaphthalene)]]: the EC50 in assay [2] turned out to be 1500 nM; in assay [3] it was 6400 nM. The Emax in assay [2] turned out to be 93%; in assay [3], 100%.
Consider `CCOc1ccc(OC)c2c1CCC1(CNC=N1)C2` (stereo not drawn) [Example 2, Spiro[(1,3-diazacyclopent-1-ene)-5,2'-(5'-ethoxy-8'-methoxy-1',2',3',4'-tetrahydronaphthalene)]fumarate], for which, in assay [1], the ED (20 mmHg) was determined as 0.06 µg/kg and the “Ratio C20 treated/C20 control” value worked out at 5.
For `COc1ccc(SC)c2c1CC1(CC2)CNC=N1` (stereo not drawn) [Example 6, Spiro[(1,3-diazacyclopent-1-ene)-5,2'-(5'-methylthio-8'-methoxy-1',2',3',4'-tetrahydronaphthalene)]fumarate], in assay [2], a half-maximal response (EC50) required 80 nM and the Emax amounted to 85%. In assay [3], the Emax came to 98% and the EC50 came to 800 nM.
Consider `COc1ccc(OC)c2c1CCC1(CNC=N1)C2` (stereo not drawn) [Example 1, Spiro[(1,3-diazacyclopent-1-ene)-5,2'-(5',8'-dimethoxy-1',2',3',4'-tetrahydronaphthalene)]fumarate], for which the values for the 50% effective concentration (EC50) in assay [2] and in assay [3] were 160 nM and 200 nM, respectively. For the same molecule, the Emax amounted to 72% in assay [2] and 100% in assay [3]. Further, in assay [1], the “Ratio C20 treated/C20 control” value is listed as 11.
`COc1ccc(OC)c2c1CCC1(CNC=N1)C2` (single isomer, unassigned) [Example 7, Spiro[(1,3-diazacyclopent-1-ene)-5,2'-(5',8'-dimethoxy-1',2',3',4'-tetrahydro-naphthalene)]fumarate, isomer α]: the EC50 in assay [2] worked out at 30 nM; in assay [3], 120 nM. Moreover, the Emax in assay [2] was 95%; in assay [3] it was 109%.
